The values below come from patent US20230094196A1, “AN IMPLANTABLE MEDICAL DEVICE” (NATIONAL UNIVERSITY OF IRELAND, GALWAY, priority 2019, published 2023).

The conditions of the assay: for time to therapeutic effect (time when dP/dt max leveled off): n=1.

Read-outs that look alike come from different tables or passages of the source.

Method: Female Sprague Dawley rats (225-300 g) were anaesthetized using isoflurane (1-3% isoflurane in oxygen). Animals were treated with a single dose of sustained release buprenorphine (Bup-SR) at 1 mg/kg subcutaneously to control pain. 2 device of the invention reservoirs (porous or non-porous) were implanted subcutaneously in the rat, the device implantation procedure is shown in FIG. 3A. Briefly, the hair on the back of the rat was removed and surgical sites were prepared with 3 washes of Betadine and 70% ethanol. Devices were sterilized using ethylene oxide prior to implantation. An anterior incision was made at the base of the neck for the and 2 posterior incisions were made 9 cm from the original incision along the back of the rat, 1 cm lateral of the spine. A blunt dissection was made at all incisions and a forceps was used to tunnel subcutaneously from the anterior to the posterior sites. A vascular access button, or self-sealing subcutaneous port (VAB95BS-MRI, VABM2B/22R22, VABR4B/22 Instech Laboratories), was connected to the dorsal end of the catheter of each device of the invention reservoir. The port was placed in position at the base of the neck and the devices tunneled posteriorly into position. The port was secured to the underlying fascia using at least one interrupted suture (5-0 monofilament). Each device of the invention reservoir was secured to the underlying fascia with one suture at either side (7-0 monofilament). The skin was closed with interrupted sutures (5-0 monofilament) and the animal was allowed to recover on a heated pad. 3 mL of warm saline were administered subcutaneously. The following day, one of the two implanted device of the invention reservoirs was actuated at controlled input pressures of 1 PSI (Regime 1) or 2 PSI (Regime 2) at 1 Hz every 12 hours for 14 days (FIG. 3b) and compared to the non-actuated control reservoir for analysis. On day 15, animals were sacrificed by CO2. Following sacrifice, each device and the immediate surrounding tissue were extracted.

On to `CNC[C@H](O)c1ccc(O)c(O)c1` [epinephrine], for which the “time to therapeutic effect (time when dP/dt max leveled off)” value by setting is: (actuated device, 35 uL of 1 mg/ml) about 40 s; (control (non-actuated) device, same animal) about 170 s. In addition, the “cyclical average dp/dt max in the first 40 s after delivery, actuation group compared with control” value (first 40 s after delivery, P<0.0001) is recorded as “significantly higher”.
